Source: US11180474B2 (BRISTOL-MYERS SQUIBB COMPANY, priority 2016, dated 2021)

Key:
[1] = target: T1, human TLR9 (Homo sapiens, UniProt Q9NR96); experiment: TLR9 inhibition reporter assay (HEK-Blue cells, SEAP reporter, ODN2006 stimulation); format: cell-based; conditions: HEK-Blue cells overexpressing human TLR9, ODN2006 5 nM
T1 construct: host or cells: HEK-Blue cells
T1 sequence (Q9NR96 26-1032): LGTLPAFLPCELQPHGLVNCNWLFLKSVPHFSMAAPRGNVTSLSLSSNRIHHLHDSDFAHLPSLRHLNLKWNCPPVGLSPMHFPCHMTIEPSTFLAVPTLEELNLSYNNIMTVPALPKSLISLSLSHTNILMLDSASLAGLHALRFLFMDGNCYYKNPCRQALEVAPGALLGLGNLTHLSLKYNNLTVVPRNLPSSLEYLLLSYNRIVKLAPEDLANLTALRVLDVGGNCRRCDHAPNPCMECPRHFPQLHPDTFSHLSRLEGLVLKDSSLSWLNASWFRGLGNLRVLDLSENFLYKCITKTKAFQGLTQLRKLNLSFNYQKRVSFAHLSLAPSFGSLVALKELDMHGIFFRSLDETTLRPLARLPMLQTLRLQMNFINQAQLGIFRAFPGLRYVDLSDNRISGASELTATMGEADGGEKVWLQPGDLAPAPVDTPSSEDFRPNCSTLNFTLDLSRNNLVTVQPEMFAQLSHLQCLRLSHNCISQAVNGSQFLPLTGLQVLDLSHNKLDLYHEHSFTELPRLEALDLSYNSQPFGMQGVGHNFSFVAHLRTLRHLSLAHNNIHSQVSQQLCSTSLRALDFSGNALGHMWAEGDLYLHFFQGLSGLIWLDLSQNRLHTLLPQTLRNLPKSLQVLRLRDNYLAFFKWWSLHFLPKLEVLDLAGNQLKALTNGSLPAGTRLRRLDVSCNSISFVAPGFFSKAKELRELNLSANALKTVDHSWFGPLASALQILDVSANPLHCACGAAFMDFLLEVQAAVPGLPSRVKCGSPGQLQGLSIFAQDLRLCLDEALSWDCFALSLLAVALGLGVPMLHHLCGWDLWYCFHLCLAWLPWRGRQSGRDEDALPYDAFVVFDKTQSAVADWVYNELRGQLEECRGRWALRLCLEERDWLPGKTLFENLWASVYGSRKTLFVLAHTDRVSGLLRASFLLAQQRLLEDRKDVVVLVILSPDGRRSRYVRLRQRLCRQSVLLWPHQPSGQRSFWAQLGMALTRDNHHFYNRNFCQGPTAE
Method in brief: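 Compound treatment: 30 min, RT, 0.05 nM–50 μM final. Agonist: TLR7 gardiquimod 7.5 μM; TLR8 R848 15.9 μM; TLR9 ODN2006 5 nM. Incubation 22 h, 37 °C, 5% CO2. Readout SEAP, HEK-Blue Detection.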

[2] = target: T2, human TLR7 (Homo sapiens, UniProt Q9NYK1); experiment: TLR7 inhibition reporter assay (HEK-Blue cells, SEAP reporter, gardiquimod stimulation); format: cell-based; conditions: HEK-Blue cells overexpressing human TLR7, gardiquimod 7.5 μM
T2 construct: host or cells: HEK-Blue cells
T2 sequence (Q9NYK1 27-1049): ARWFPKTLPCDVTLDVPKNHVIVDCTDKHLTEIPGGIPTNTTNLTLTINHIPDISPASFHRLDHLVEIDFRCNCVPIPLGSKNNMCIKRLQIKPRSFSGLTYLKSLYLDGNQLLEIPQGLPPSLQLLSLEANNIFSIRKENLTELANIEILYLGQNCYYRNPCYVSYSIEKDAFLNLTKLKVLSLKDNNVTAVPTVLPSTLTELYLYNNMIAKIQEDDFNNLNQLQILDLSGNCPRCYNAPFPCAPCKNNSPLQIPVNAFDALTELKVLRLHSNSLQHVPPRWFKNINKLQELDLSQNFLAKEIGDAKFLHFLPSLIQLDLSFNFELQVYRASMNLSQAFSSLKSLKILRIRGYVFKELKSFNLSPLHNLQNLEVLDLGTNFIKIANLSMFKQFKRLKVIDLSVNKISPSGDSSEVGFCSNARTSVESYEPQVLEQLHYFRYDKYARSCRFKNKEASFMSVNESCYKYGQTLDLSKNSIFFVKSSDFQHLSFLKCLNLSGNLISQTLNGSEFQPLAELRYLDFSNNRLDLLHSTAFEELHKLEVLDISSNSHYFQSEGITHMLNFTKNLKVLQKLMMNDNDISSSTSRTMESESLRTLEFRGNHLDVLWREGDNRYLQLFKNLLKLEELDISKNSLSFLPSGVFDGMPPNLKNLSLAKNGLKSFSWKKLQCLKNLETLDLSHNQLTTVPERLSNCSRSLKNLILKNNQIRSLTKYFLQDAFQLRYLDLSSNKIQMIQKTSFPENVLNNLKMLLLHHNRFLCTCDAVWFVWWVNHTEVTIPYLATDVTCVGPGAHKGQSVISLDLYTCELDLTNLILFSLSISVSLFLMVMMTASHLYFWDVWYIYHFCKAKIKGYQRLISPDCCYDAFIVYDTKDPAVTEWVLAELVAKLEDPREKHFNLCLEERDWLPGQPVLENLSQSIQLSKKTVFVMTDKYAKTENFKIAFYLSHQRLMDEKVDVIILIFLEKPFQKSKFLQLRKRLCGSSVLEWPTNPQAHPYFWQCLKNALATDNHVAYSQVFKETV
Method in brief: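 22 h, 37° C, 5% CO2 incubation; compounds 0.05 nM-50 μM final; TLR7 cells 15000/well, TLR8 20,000/well. Readout: SEAP via HEK-Blue Detection medium. % inhibition = signal reduction versus agonist + DMSO wells, referenced to known inhibitor.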

Structure (SMILES) | IC50 [1] [nM] | IC50 [2] [nM]
COc1ccc(-c2[nH]c3ccc(C4CCN(C(=O)CN5CCC[C@H](C(=O)N6CCCC(O)C6)C5)CC4)cc3c2C(C)C)cc1OC (stereo partly drawn) [Example 292, 1-(4-(2-(3,4-dimethoxyphenyl)-3-isopropyl-1H-indol-5-yl)piperidin-1-yl)-2-((3S)-3-(3-hydroxypiperidine-1-carbonyl)piperidin-1-yl)ethan-1-one] | 1810 | 22
CCN(CC)C(=O)C1CCCN(CC(=O)N2CCC(c3ccc4[nH]c(-c5ccc(OC)c(OC)c5)c(C(C)C)c4c3)CC2)C1 (stereo not shown) [Example 248, 1-(2-(4-(2-(3,4-dimethoxyphenyl)-3-isopropyl-1H-indol-5-yl)piperidin-1-yl)-2-oxoethyl)-N,N-diethylpiperidine-3-carboxamide] | 163 | 33
COc1ccc(-c2[nH]c3ccc(C4CCN(C(=O)CN[C@H]5CC[C@H](N)CC5)CC4)cc3c2C(C)C)cc1OC [Example 232, 2-(((1r,4r)-4-aminocyclohexyl)amino)-1-(4-(2-(3,4-dimethoxyphenyl)-3-isopropyl-1H-indol-5-yl)piperidin-1-yl)ethan-1-one] | 307 | 120
COc1ccc(-c2[nH]c3ccc(C4CCN(Cc5cnc[nH]5)CC4)cc3c2C(C)C)cc1OC [Example 268, 5-(1-((1H-imidazol-5-yl)methyl)piperidin-4-yl)-2-(3,4-dimethoxyphenyl)-3-isopropyl-1H-indole] | 1480 | 31
COc1ccc(-c2[nH]c3ccc(C4CCN(C(=O)CN5CCC[C@H](C(=O)N6CCC(N(C)C)CC6)C5)CC4)cc3c2C(C)C)cc1OC [Example 289, (S)-1-(4-(2-(3,4-dimethoxyphenyl)-3-isopropyl-1H-indol-5-yl)piperidin-1-yl)-2-(3-(4-(dimethylamino)piperidine-1-carbonyl)piperidin-1-yl)ethan-1-one] | 502 | 13
COc1ccc(-c2[nH]c3ccc(C4CCN(C(=O)CN5CCCC(C(=O)NC6CCN(C(C)C)CC6)C5)CC4)cc3c2C(C)C)cc1OC (single isomer, unassigned) [Example 280, 1-(2-(4-(2-(3,4-dimethoxyphenyl)-3-isopropyl-1H-indol-5-yl)piperidin-1-yl)-2-oxoethyl)-N-(1-isopropylpiperidin-4-yl)piperidine-3-carboxamide] | 417 | 26
COc1ccc(-c2[nH]c3ccc(C4CCN(C(=O)C[C@H](C)N)CC4)cc3c2C(C)C)cc1OC [Example 253, (S)-3-amino-1-(4-(2-(3,4-dimethoxyphenyl)-3-isopropyl-1H-indol-5-yl)piperidin-1-yl)butan-1-one] | 445 | 10
COc1ccc(-c2[nH]c3ccc(C4CCN(C(=O)CN5CCN(CC(=O)NC(C)C)CC5)CC4)cc3c2C(C)C)cc1OC [Example 229, 2-(4-(2-(4-(2-(3,4-dimethoxyphenyl)-3-isopropyl-1H-indol-5-yl)piperidin-1-yl)-2-oxoethyl)piperazin-1-yl)-N-isopropylacetamide] | 4980 | 25
CCN(CC)C(=O)C1CCCN(C(=O)CN2CCC(c3ccc4[nH]c(-c5ccc(OC)c(OC)c5)c(C(C)C)c4c3)CC2)C1 (stereo not shown) [Example 272, 1-(2-(4-(2-(3,4-dimethoxyphenyl)-3-isopropyl-1H-indol-5-yl)piperidin-1-yl)acetyl)-N,N-diethylpiperidine-3-carboxamide] | 3400 | 83
COc1ccc(-c2[nH]c3ccc(C4CCN(CC(=O)NCCO)CC4)cc3c2C(C)C)cc1OC [Example 276, 2-(4-(2-(3,4-dimethoxyphenyl)-3-isopropyl-1H-indol-5-yl)piperidin-1-yl)-N-(2-hydroxyethyl) acetamide] | 3580 | 17
COc1ccc(-c2[nH]c3ccc(C4CCN(CC(=O)N5CCN(C)CC5)CC4)cc3c2C(C)C)cc1OC [Example 274, 2-(4-(2-(3,4-dimethoxyphenyl)-3-isopropyl-1H-indol-5-yl)piperidin-1-yl)-1-(4-methylpiperazin-1-yl) ethan-1-one] | 829 | 68
COc1ccc(-c2[nH]c3ccc(C4CCNCC4O)cc3c2C(C)C)cc1OC (single isomer, unassigned) [Example 317, 4-(2-(3,4-dimethoxyphenyl)-3-isopropyl-1H-indol-5-yl)piperidin-3-ol 2,2,2-trifluoroacetate] | 4720 | 38
COc1ccc(-c2[nH]c3ccc(C4CCN(C(=O)CN5CCC[C@@H](C(=O)N6CCC(N(C)C)CC6)C5)CC4)cc3c2C(C)C)cc1OC [Example 305, (R)-1-(4-(2-(3,4-dimethoxyphenyl)-3-isopropyl-1H-indol-5-yl)piperidin-1-yl)-2-(3-(4-(dimethylamino)piperidine-1-carbonyl)piperidin-1-yl)ethan-1-one] | 561 | 27
COc1ccc(-c2[nH]c3ccc(C4CCN(C(=O)CN5CCC[C@@H](C(=O)N6CCN(CCN7CCCC7)CC6)C5)CC4)cc3c2C(C)C)cc1OC [Example 307, (R)-1-(4-(2-(3,4-dimethoxyphenyl)-3-isopropyl-1H-indol-5-yl)piperidin-1-yl)-2-(3-(4-(2-(pyrrolidin-1-yl)ethyl)piperazine-1-carbonyl)piperidin-1-yl)ethan-1-one] | 579 | 52
COc1ccc(-c2[nH]c3ccc(C4CCN(C(=O)CNCCOCCO)CC4)cc3c2C(C)C)cc1OC [Example 230, 1-(4-(2-(3,4-dimethoxyphenyl)-3-isopropyl-1H-indol-5-yl)piperidin-1-yl)-2-((2-(2-hydroxyethoxy)ethyl)amino)ethan-1-one] | 2200 | 19
COc1ccc(-c2[nH]c3ccc(C4CCN(C(=O)CNC5CCC(C(C)(C)O)CC5)CC4)cc3c2C(C)C)cc1OC (stereo not shown) [Example 245, 1-(4-(2-(3,4-dimethoxyphenyl)-3-isopropyl-1H-indol-5-yl)piperidin-1-yl)-2-((4-(2-hydroxypropan-2-yl)cyclohexyl)amino)ethan-1-one] | 1140 | 26
COc1ccc(-c2[nH]c3ccc(C4CCN(C(=O)COC(C)C)CC4)cc3c2C(C)C)cc1OC [Example 314, 1-(4-(2-(3,4-dimethoxyphenyl)-3-isopropyl-1H-indol-5-yl)piperidin-1-yl)-2-isopropoxyethan-1-one] | 26600 | 284
